Here are results for 33 molecules from US8415357B2 (Canbas Co., Ltd., priority 2007, dated 2013).

One may read the IC50 as the midpoint of a concentration-inhibition curve.

The test system of one assay is Jurkat cells. The assay can be described thus: Adaptation to G2 cell cycle arrest (G1 increment) in X-ray pre-arrested Jurkat cells, flow cytometry. The format is cell-based, human. To be noted: Homo sapiens, Jurkat, 24 h, Table 1; concentration causing half-maximal increase of % cells in G1 phase (G1 increment); Jurkat pre-arrested by 10 Gy X-ray, 24 hours with compound. As for the experimental part: Phenotype-based screening was used to measure the ability of compounds of the invention to cause adaptation to G2 cell cycle arrest in G2-arrested cells. Adaptation to G2 cell cycle arrest and re-entry into the cell cycle can result in death of the previously G2-arrested cell, or suppression (inhibition) of further proliferation of the previously G2-arrested cell. In a non-limiting embodiment, the ability to cause adaptation to G2 cell cycle arrest was measured by contacting cells in which G2 arrest had been induced by irradiation (e.g., gamma (γ) radiation or X-ray radiation), with compounds of the invention at various concentrations and, for each compound at each concentration, determining the percentage of cells that escaped G2 arrest and re-entered the cell cycle, by determining the percentage of cells in G1 phase. The IC50 value for each compound was calculated as the dosage (usually in μM) that caused half-maximal increase of the percentage of cells in G1 phase (the G1 increment) measured for that compound. Certain invention compounds were initially identified by phenotype-based screening of small molecule libraries for activity against G2-arrested cells as described above.
Jurkat cells (a human T cell lymphoma-derived cell line) were arrested at the G2 phase by X-ray irradiation at 10 Gy, and cultured for 24 hours in 10% fetal calf serum (FCS)/RPMI1640 at 37° C. with 5% CO2/air. (FCS was from Equitech-Bio, Kerrville, Tex., and RPMI1640 was from Sigma-Aldrich, St. Louis, Mo.) Test compounds were added to the medium at the indicated doses, and the cells were cultured under the conditions described above, for an additional 24 hours before harvesting.
Harvested cells were stained with Krishan's buffer (0.1% sodium citrate, 50 μg/ml propidium iodide, 20 μg/ml RNase A, 0.5% Nonidet P-40) and analyzed by flow cytometry (BD Biosciences, Franklin Lakes, N.J.) to identify the cell stage of each cell in the sample. Cells in G1 phase were identified by having […] (2N) DNA content.
The IC50 value for each compound was calculated as the dosage showing half maximal activity to induce the increase of the percentage of cells in G1 phase (the G1 increment). IC50 values were used to measure the activity of compounds and to determine structure-activity relationships.
Pre-arrested Jurkat cells were prepared as described in Example 1. Briefly, Jurkat cells were subjected to X-ray irradiation at a dose of 10 Gy, and cultured for 24 hours in 10% fetal calf serum (FCS)/RPMI1640 at 37° C. with 5% CO2/air, after which time cells were exposed to various concentrations of test compounds, and cultured under the conditions described above for an additional 24 hours before harvesting. Harvested cells were stained with Krishan's buffer (0.1% sodium citrate, 50 μg/ml propidium iodide, 20 μg/ml RNase A, 0.5% Nonidet P-40) and analyzed by flow cytometry (BD Biosciences, Franklin Lakes, N.J.) to identify the cell stage of each cell in the sample. Cells in G1 phase were identified by having […] (2N) DNA content.
The IC50 value for each compound was calculated as the dosage (concentration in μM) that caused half-maximal increase of the percentage of cells in G1 phase (the G1 increment) measured for that test compound. Table 1 below presents the structure, mass, 1H NMR values, and […] values for representative compounds.
The IC50 value for each compound was calculated as the dosage (concentration in μM) that caused half-maximal increase of the percentage of cells in G1 phase (the G1 increment) measured for that test compound. Table 2 below presents structures, IUPAC name, molecular formula, ID number (“SCID”), mass, 1H NMR values, and IC50 values for representative compounds. Table 3 presents structures, IUPAC name, molecular formula, ID number (“SCID”), mass, 1H NMR values, and IC50 values for further representative compounds.
In general terms: Flow cytometry measures light scatter and fluorescence of single cells or particles in a stream.
`CC1C(=O)N(Nc2ccc(C(F)(F)F)cn2)C(=O)C1Sc1ccccc1` (stereo not shown) [Compound S00145]: the IC50 was found to be 30000 nM.
As for `COC1=C(C)C(=O)N(Cc2ccc(C(F)(F)F)cc2)C1=O` [Compound S00410], the half-inhibitory concentration (IC50) is 10000 nM.
Take `O=C1C(Cl)=C(Cl)C(=O)N1Cc1ccc(C(F)(F)F)cc1` [Compound S00409]: the IC50 is 20000 nM.
The same measure, in the same setting: in the case of `CC1=C(C)C(=O)N(Cc2ccc(C(F)(F)F)cc2Cl)C1=O` [Compound S00408] it was 10000 nM; in that of `CC1=C(C)C(=O)N(Nc2cc(C(F)(F)F)cc(C)n2)C1=O` [Compound S00069], 5000 nM.
Consider `CC1=C(C)C(=O)N(Nc2cc(C(F)(F)F)cc(C(F)(F)F)c2)C1=O` [Compound S00474], for which the concentration for half-maximal inhibition (IC50) turned out to be 2500 nM.
`CC1=C(C)C(=O)N(Nc2nc(Cl)ccc2C(F)(F)F)C1=O` [Compound S00108]: the IC50 was determined as 20000 nM.
The same measure, in the same setting: in the case of `CC1=C(c2ccccc2)C(=O)N(Nc2ccc(C(F)(F)F)c(Cl)n2)C1=O` [Compound S00257] it was 10000 nM; in that of `CC1=C(C)C(=O)N(N(C)c2cc(C(F)(F)F)cc(C)n2)C1=O` [Compound S00084], 5000 nM; in that of `CC1=C(C)C(=O)N(Nc2cccc(C(F)(F)F)c2)C1=O` [Compound S00305], 5000 nM.
Same read-out and setting: in the case of `CC1=C(C)C(=O)N(Nc2cc(Cl)cc(Cl)c2)C1=O` [Compound S00456] it was 2500 nM; in that of `CC1=C(C)C(=O)N(N(C)c2ccc(C(F)(F)F)c(Cl)n2)C1=O` [Compound S00170], 120 nM.

The assay is the same for the next values; noted with them: Homo sapiens, Jurkat, 24 h, Table 2; concentration causing half-maximal increase of % cells in G1 phase (G1 increment); Jurkat pre-arrested by 10 Gy X-ray, 24 hours with compound.
Regarding `CC1=C(C)C(=O)N(Nc2cc(Cl)nc(-c3ccccc3)c2C(F)(F)F)C1=O` [Compound S01688, 1-{[6-chloro-2-phenyl-3-(trifluoromethyl)(4-pyridyl)]amino}-3,4-dimethylazoline-2,5-dione], the IC50 was found to be 625 nM.
On the same count and under the same terms, in the case of `CC1=C(C)C(=O)N(Nc2cc(C(F)(F)F)c3ccccc3n2)C1=O` [Compound S00873, 3,4-dimethyl-1-{[4-(trifluoromethyl)(2-quinolyl)]amino}azoline-2,5-dione] it was 300 nM; in that of `CC1=C(C)C(=O)N(Nc2ccc(C(F)(F)F)c(-c3ccc(Cl)cc3)n2)C1=O` [Compound S01371, 1-{[6-(4-chlorophenyl)-5-(trifluoromethyl)(2-pyridyl)]amino}-3,4-dimethylazoline-2,5-dione], 625 nM.
Turning to `COc1ccccc1C(=O)N1CCN(Cc2cc(NN3C(=O)C(C)=C(C)C3=O)nc3cc(Br)ccc23)CC1` [Compound S01879, 1-{[7-bromo-4-({4-[(2-methoxyphenyl)carbonyl]piperazinyl}methyl) (2-quinolyl)]amino}-3,4-dimethylazoline-2,5-dione], the IC50 was 78 nM.
Still for that read-out and setting: in the case of `CC1=C(C)C(=O)N(Nc2cc(C(F)(F)F)c3ccc(Cl)c(Cl)c3n2)C1=O` [Compound S01455, 1-{[7,8-dichloro-4-(trifluoromethyl)(2-quinolyl)]amino}-3,4-dimethylazoline-2,5-dione] it was 156 nM; in that of `CC1=C(C)C(=O)N(Nc2ccc(C(F)(F)F)c(-c3ccc(C)cc3)n2)C1=O` [Compound S01393, 3,4-dimethyl-1-{[6-(4-methylphenyl)-5-(trifluoromethyl)(2-pyridyl)]amino}azoline-2,5-dione], 625 nM; in that of `CC1=C(C)C(=O)N(Nc2ccc(C(F)(F)F)c(-c3ccccc3)n2)C1=O` [Compound S01266, 3,4-dimethyl-1-{[6-phenyl-5-(trifluoromethyl)(2-pyridyl)]amino}azoline-2,5-dione], 200 nM.
Turning to `CC(=O)N(c1ccc(C(F)(F)F)c(Cl)n1)N1C(=O)C(C)=C(C)C1=O` [Compound S01473, N-(3,4-dimethyl-2,5-dioxoazolinyl)-N-[6-chloro-5-(trifluoromethyl) (2-pyridyl)]acetamide], the half-maximal inhibitory concentration (IC50) is 200 nM.
Turning to `CC1=C(C)C(=O)N(Nc2nc(Cl)c(C(F)(F)F)cc2Br)C1=O` [Compound S01981, 1-{[3-bromo-6-chloro-5-(trifluoromethyl)(2-pyridyl)]amino}-3,4-dimethylazoline-2,5-dione], the IC50 is 78 nM.
The same measure, in the same setting: in the case of `COCC1=C(C)C(=O)N(N(C)c2ccc(C(F)(F)F)c(Cl)n2)C1=O` [Compound S01600, 1-{[6-chloro-5-(trifluoromethyl)(2-pyridyl)]methylamino}-3-(methoxymethyl)-4-methylazoline-2,5-dione] it was 625 nM; in that of `CC1=C(C)C(=O)N(Nc2ccc(C(F)(F)F)c(C#N)n2)C1=O` [Compound S01475, 6-[(3,4-dimethyl-2,5-dioxoazolinyl)amino]-3-(trifluoromethyl)pyridine-2-carbonitrile], 500 nM.
Turning to `CCN(CC)C(=O)CCC1=C(C)C(=O)N(Nc2ccc(C(F)(F)F)c(Cl)n2)C1=O` [Compound S01711, 3-(1-{[6-chloro-5-(trifluoromethyl)(2-pyridyl)]amino}-4-methyl-2,5-dioxoazolin-3-yl)-N,N-diethylpropanamide], the IC50 came out at 156 nM.
Still for that read-out and setting: under `COc1ccc(-c2cc(NN3C(=O)C(C)=C(C)C3=O)nc3c(Cl)cccc23)cc1` [Compound S01191, 1-{[8-chloro-4-(4-methoxyphenyl)(2-quinolyl)]amino}-3,4-dimethylazoline-2,5-dione] stands 625 nM; under `CC1=C(C)C(=O)N(N(C)c2ccc(C(F)(F)F)c(Cl)n2)C1=O` [Compound S00170], 120 nM; under `CCOC(=O)C(CC1=C(C)C(=O)N(Nc2ccc(C(F)(F)F)c(Cl)n2)C1=O)C(=O)OCC` [Compound S01712, Diethyl 2-[(1-{[6-chloro-5-(trifluoromethyl)(2-pyridyl)]amino}-4-methyl-2,5-dioxoazolin-3-yl)methyl]propane-1,3-dioate], 156 nM.
`CC1=C(C)C(=O)N(Nc2cc(Cl)c3cc(C)ccc3n2)C1=O` [Compound S00935, 1-[(4-chloro-6-methyl(2-quinolyl))amino]-3,4-dimethylazoline-2,5-dione]: the IC50 stood at 625 nM.
Same read-out and setting: under `CC1=C(C)C(=O)N(Nc2cc(Cl)c3cccc(Br)c3n2)C1=O` [Compound S01247, 1-[(8-bromo-4-chloro(2-quinolyl))amino]-3,4-dimethylazoline-2,5-dione] stands 78 nM; under `CC1=C(C)C(=O)N(Nc2cc(CN3CCN(S(=O)(=O)c4ccccc4)CC3)c3ccc(Br)cc3n2)C1=O` [Compound S01822, 1-[(7-bromo-4-{[4-(phenylsulfonyl)piperazinyl]methyl}(2-quinolyl))amino]-3,4-dimethylazoline-2,5-dione], 625 nM.
The same measure, in the same setting: in the case of `CC1=C(CCC(C)C)C(=O)N(Nc2ccc(C(F)(F)F)c(Cl)n2)C1=O` [Compound S01554, 1-{[6-chloro-5-(trifluoromethyl)(2-pyridyl)]amino}-4-methyl-3-(3-methylbutyl)azoline-2,5-dione] it was 120 nM.
On the same count and under the same terms, under `CC1=C(C)C(=O)N(N(C)c2ccc(C(F)(F)F)c(Br)n2)C1=O` [Compound S01007, 1-{[6-bromo-5-(trifluoromethyl)(2-pyridyl)]methylamino}-3,4-dimethylazoline-2,5-dione] stands 120 nM.

The same assay, now with this note: Homo sapiens, Jurkat, 24 h, Table 3; concentration causing half-maximal increase of % cells in G1 phase (G1 increment); Jurkat pre-arrested by 10 Gy X-ray, 24 hours with compound.
For `CCCC(O)CCC1=C(C)C(=O)N(Nc2ccc(C(F)(F)F)c(Cl)n2)C1=O` (stereo not shown) [Compound S03552, 1-{[6-chloro-5-(trifluoromethyl)(2-pyridyl)]amino}-4-(3-hydroxyhexyl)-3-methylazoline-2,5-dione], the IC50 is 60 nM.
Same read-out and setting: in the case of `CCCCC1=C(C)C(=O)N(Nc2ccc(C(F)(F)F)c(Cl)n2)C1=O` [Compound S03448, 3-butyl-1-{[6-chloro-5-(trifluoromethyl) (2-pyridyl)]amino}-4-methylazoline-2,5-dione] it was 156 nM.
